# Measured values reported in patent publication US11905288B1, “Pyrido[3″,4″:4′, 5′]pyrrolo[3′,2′:4,5]imidazole[1,2-c]pyrimidine compounds as CK2 inhibitors” (KING FAISAL UNIVERSITY, priority 2023, dated 2024).
# pIC50: −log10 of the molar value.
# Experiments:
# PC3 (prostate) = test: In vitro cytotoxic activity assay (MTT), PC3; type: cell-based; conditions: Homo sapiens, Prostate cell; PC3 (prostate) cells, exposed for 96 hours; read-out: IC50, concentration eliciting a 50% inhibition of cell proliferation
# Method: (§1) Compounds 1-15 were screened for their in vitro cytotoxic activity utilizing a 3-(4,5-dimethyl-thiazol-2-yl)-2,5-diphenyltetrazolium bromide (MTT) assay against selected cancer human cell lines consisting of PC3 (prostate), HCT116 (colon), A375 (melanoma), H1299 (lung), MIAPaCa-2 (pancreas), HL60 (leukemia), MCF7 (breast), MDA-MB-231 (breast) (T. Mosmann, J. Immunol. Meth., 1983, 65, 55-63). The cells were cultured at 37° C. in RMPI1640 medium supplemented with 10% fetal bovine serum, 50 IU/mL penicillin, and 50 μg/mL streptomycin in a 5% CO2 incubator. All cells were sub-cultured 3 times/week by trypsinisation. Viable cells were seeded and allowed to adhere for 12 h before a test drug was added in 96-well plates at an initial density of 1.0×10^5 cells/mL. Tumour cell lines were separately exposed to various concentrations of the tested compounds followed by incubation at a temperature of 37° C. during 96 h inside a medium of fresh RMPI 1640. Cells were subsequently incubated at 37° C. using MIT at 0.5 mg/mL during 4 h. After removal of supernatant, formazan crystals were dissolved in isopropanol and the optical density was measured at 570 nm. CX-4945 was used as a positive control.
# HCT116 (colon) = test: In vitro cytotoxic activity assay (MTT), HCT116; type: cell-based; conditions: Homo sapiens, HCT-116; HCT116 (colon) cells, exposed for 96 hours; read-out: IC50, concentration eliciting a 50% inhibition of cell proliferation
# Method: as §1
# A375 (melanoma) = test: In vitro cytotoxic activity assay (MTT), A375; type: cell-based; conditions: Homo sapiens, A-375; A375 (melanoma) cells, exposed for 96 hours; read-out: IC50, concentration eliciting a 50% inhibition of cell proliferation
# Method: as §1
# H1299 (lung) = test: In vitro cytotoxic activity assay (MTT), H1299; type: cell-based; conditions: Homo sapiens, NCI-H1299; H1299 (lung) cells, exposed for 96 hours; read-out: IC50, concentration eliciting a 50% inhibition of cell proliferation
# Method: as §1
# MIAPaCa-2 (pancreas) = test: In vitro cytotoxic activity assay (MTT), MIAPaCa-2; type: cell-based; conditions: Homo sapiens, MIA PaCa-2; MIAPaCa-2 (pancreas) cells, exposed for 96 hours; read-out: IC50, concentration eliciting a 50% inhibition of cell proliferation
# Method: as §1
# HL60 (leukemia) = test: In vitro cytotoxic activity assay (MTT), HL60; type: cell-based; conditions: Homo sapiens, HL-60; HL60 (leukemia) cells, exposed for 96 hours; read-out: IC50, concentration eliciting a 50% inhibition of cell proliferation
# Method: as §1
# MCF7 (breast) = test: In vitro cytotoxic activity assay (MTT), MCF7; type: cell-based; conditions: Homo sapiens; MCF7 (breast) cells, exposed for 96 hours; read-out: IC50, concentration eliciting a 50% inhibition of cell proliferation
# Method: as §1
# MDA-MB-231 (breast) = test: In vitro cytotoxic activity assay (MTT), MDA-MB-231; type: cell-based; conditions: Homo sapiens; MDA-MB-231 (breast) cells, exposed for 96 hours; read-out: IC50, concentration eliciting a 50% inhibition of cell proliferation
# Method: as §1
# [1] = target: T1, recombinant human CK2 (RRββ-holoenzyme) (Homo sapiens, UniProt P68400); test: CK2 Kinase Assay (33P-ATP, filter plate); type: biochemical; conditions: final ATP concentration 15 μM, 10 min at 30° C.; read-out: protein kinase CK2 activity IC50
# T1 construct: purchased Millipore
# T1 sequence (P68400 whole entry): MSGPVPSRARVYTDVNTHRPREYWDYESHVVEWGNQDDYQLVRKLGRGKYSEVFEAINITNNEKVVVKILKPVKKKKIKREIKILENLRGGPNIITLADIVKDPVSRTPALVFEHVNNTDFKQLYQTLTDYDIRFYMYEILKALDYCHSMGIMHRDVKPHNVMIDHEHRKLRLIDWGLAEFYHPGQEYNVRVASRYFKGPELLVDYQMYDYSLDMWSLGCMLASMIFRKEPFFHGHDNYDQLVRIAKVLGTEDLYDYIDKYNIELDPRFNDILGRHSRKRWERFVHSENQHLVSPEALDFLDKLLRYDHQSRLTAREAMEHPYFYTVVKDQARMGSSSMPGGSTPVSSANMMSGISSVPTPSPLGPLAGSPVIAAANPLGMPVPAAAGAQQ
# T1 sequence (P67870 whole entry partner): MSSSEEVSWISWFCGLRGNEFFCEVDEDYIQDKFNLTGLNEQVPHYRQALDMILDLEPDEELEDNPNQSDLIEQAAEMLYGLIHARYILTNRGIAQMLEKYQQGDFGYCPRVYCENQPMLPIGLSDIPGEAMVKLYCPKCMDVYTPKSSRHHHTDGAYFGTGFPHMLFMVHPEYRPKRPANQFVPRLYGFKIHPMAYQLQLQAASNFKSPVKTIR
# Method: CK2 Kinase Assay was conducted using the protocol as described in Pierre F. et al; J. Med. Chem. 2011, 54, 635-654. The tested compounds in aqueous solution were added at a volume of 10 μL to a reaction mixture comprising 10 μL of assay dilution buffer (ADB; 20 mM MOPS, pH 7.2, 25 mM β-glycerol phosphate, 5 mM EGTA, 1 mM sodium orthovanadate, and 1 mM dithiothreitol), 10 μL of substrate peptide (RRRDDDSDDD, dissolved in ADB at a concentration of 1 mM), 10 μL of recombinant human CK2 (RRββ-holoenzyme, 25 ng dissolved in ADB; Millipore). Reactions were initiated by the addition of 10 μL of ATP solution (90% 75 mMMgCl2, 75 μM ATP (final ATP concentration: 15 μM) dissolved in ADB; 10% [γ-33P] ATP (stock 1 mCi/100 μL; 3000 Ci/mmol (Perkin-Elmer) and maintained for 10 min at 30° C. The reactions were quenched with 100 μL of 0.75% phosphoric acid and then transferred to and filtered through a phosphor cellulose filter plate (Millipore). After washing each well five times with 0.75% phosphoric acid, the plate was dried under vacuum for 5 min and, following the addition of 15 μL of scintillation fluid to each well, the residual radioactivity was measured using a Wallac luminescence counter. The IC50 values were derived from eight concentrations of test inhibitors.
structure (smiles),measurement,setting,value
"Clc1cccc(-n2c3ccncc3c3nc4ccncn4c32)c1 [Compound 1, 5-(3-chlorophenyl)-5H-pyrido[3″,4″:4′,5′]pyrrolo[3′,2′:4,5]imidazo[1,2-c]pyrimidine]",pIC50,PC3 (prostate),5.89
same,pIC50,HCT116 (colon),5.68
same,pIC50,A375 (melanoma),5.43
same,pIC50,H1299 (lung),5.59
same,pIC50,MIAPaCa-2 (pancreas),6.05
same,pIC50,HL60 (leukemia),5.55
same,pIC50,MCF7 (breast),5.39
same,pIC50,MDA-MB-231 (breast),5.62
same,pIC50,[1],7.25
